Results taken from ChEMBL document CHEMBL1201862, “PubChem BioAssay data set” (2004).
Activity calls are given as the source filed them.

Columns and labels:
[1] = system: H4; test: inhibitors of control reporter signal in H4 cells – cell-based, plate reader, dry powder samples, counter-screen for prion reporter project, dose response (AID 540255); assay type: functional; details: Homo sapiens
[2] = system: H4; test: Amyloid Precursor 5' UTR neuroblastoma cell reporter line Measured in Cell-Based System Using Plate Reader - 2078-04_Inhibitor_Dose_DryPowder_Activity. [Related pubchem assays (depositor defined):AID488894]; assay type: functional; details: Homo sapiens
[3] = target: Luciferin 4-monooxygenase (Photinus pyralis, UniProt P08659); test: firefly luciferase enzyme inhibitors, dose response, biochemical, dry powder samples, plate reader (AID 588451)
[4] = cytotoxicity in HEK-293T cells, dose response, cytotoxicity control for BCR NF-kB inhibitor project, luminescence, B-cell screen hits (AID 489021); assay type: functional, cell-based;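 also: HEK-293T cells carrying an NF-kB luciferase reporter; cells exposed to compound for about 14 hours before viability readout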
[5] = system: H4; test: Inhibitors of Prion Protein 5' UTR mRNA Measured in Cell-Based System Using Plate Reader - 2078-01_Inhibitor_Dose_DryPowder_Activity. [Related pubchem assays (depositor defined):AID488894]; assay type: functional; details: Homo sapiens
[6] = target: T1, Long-chain-fatty-acid--AMP ligase FadD28 (Mycobacterium tuberculosis, UniProt P9WQ59); test: Fluorescence polarization aasay to screen for inhibitors that compete for the binding of FadD28 to a bisubstrate Measured in Biochemical System Using Plate Reader - 2147-01_Inhibitor_Dose_CherryPick_Activity.; assay type: functional, Mycobacterium tuberculosis H37Rv
T1 sequence (P9WQ59 whole entry): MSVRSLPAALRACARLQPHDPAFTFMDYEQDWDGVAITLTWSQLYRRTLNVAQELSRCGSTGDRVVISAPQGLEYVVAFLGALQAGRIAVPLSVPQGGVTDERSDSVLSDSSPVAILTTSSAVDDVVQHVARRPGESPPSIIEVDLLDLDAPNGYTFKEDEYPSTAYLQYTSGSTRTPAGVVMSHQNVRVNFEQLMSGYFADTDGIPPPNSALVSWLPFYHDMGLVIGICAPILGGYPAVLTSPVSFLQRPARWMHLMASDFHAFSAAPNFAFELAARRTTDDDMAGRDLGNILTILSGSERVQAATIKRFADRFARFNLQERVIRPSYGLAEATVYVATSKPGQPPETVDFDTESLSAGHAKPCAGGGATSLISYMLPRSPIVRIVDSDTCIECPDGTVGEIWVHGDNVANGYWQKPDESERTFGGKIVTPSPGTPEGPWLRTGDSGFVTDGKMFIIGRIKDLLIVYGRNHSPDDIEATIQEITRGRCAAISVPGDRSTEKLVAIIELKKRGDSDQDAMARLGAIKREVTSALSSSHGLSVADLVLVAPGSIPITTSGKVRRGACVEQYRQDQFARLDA

[7] = target: Genome polyprotein (dengue virus type 2, UniProt P29990); test: Dengue-2 NS5 methyltransferase inhibitors, primary screen, biochemical, confirmation dose response (AID 588689); assay type: functional
[8] = system: Vero; test: Vero cell cytotoxicity, cytotoxicity control for flavivirus capping enzyme inhibitors (AID 588742); assay type: functional; details: Chlorocebus sabaeus
[9] = target: T2, Sentrin-specific protease 8 (Homo sapiens, UniProt Q96LD8); test: SENP8 protease inhibitors, SAR follow-up, biochemical, luminescence (AID 504501); assay type: functional
T2 sequence (Q96LD8 whole entry): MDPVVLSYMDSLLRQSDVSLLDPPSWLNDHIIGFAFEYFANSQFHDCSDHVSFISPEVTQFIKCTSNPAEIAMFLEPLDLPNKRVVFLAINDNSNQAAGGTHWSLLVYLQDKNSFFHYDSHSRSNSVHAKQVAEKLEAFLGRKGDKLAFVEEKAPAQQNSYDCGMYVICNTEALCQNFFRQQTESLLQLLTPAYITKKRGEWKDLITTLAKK

[10] = target: T3, Sentrin-specific protease 6 (Homo sapiens, UniProt Q9GZR1); test: SENP6 protease inhibitors, SAR follow-up, biochemical, luminescence, set 2 (AID 588598); assay type: functional
T3 sequence (Q9GZR1 whole entry): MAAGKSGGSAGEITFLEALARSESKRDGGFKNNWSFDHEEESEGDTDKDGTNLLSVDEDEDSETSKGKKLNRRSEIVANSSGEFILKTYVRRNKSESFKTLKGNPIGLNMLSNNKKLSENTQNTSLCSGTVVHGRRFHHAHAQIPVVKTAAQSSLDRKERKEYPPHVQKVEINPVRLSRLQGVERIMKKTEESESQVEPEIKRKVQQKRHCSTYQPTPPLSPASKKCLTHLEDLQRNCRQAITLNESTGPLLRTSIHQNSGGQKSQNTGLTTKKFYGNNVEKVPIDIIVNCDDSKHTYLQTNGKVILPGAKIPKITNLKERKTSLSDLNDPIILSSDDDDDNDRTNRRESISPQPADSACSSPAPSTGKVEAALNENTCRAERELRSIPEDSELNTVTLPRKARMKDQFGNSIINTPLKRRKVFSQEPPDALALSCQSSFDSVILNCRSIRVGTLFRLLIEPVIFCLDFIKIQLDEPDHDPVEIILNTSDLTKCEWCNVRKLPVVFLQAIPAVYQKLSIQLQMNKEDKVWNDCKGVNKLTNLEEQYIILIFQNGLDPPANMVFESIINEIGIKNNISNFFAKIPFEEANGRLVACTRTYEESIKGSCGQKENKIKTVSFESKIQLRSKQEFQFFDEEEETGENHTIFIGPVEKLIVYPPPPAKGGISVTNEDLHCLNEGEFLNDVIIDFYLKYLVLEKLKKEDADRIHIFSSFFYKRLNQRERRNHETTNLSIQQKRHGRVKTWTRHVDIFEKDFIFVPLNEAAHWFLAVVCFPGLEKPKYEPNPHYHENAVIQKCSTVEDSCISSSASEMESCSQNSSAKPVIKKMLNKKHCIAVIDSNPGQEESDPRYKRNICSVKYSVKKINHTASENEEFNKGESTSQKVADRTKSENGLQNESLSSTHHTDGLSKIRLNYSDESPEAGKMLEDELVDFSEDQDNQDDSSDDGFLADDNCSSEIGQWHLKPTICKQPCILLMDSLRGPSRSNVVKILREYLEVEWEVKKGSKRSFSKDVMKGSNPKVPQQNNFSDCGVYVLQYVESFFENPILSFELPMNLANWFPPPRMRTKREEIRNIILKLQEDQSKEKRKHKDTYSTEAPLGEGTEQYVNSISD

[11] = target: T4, Sentrin-specific protease 7 (Homo sapiens, UniProt Q9BQF6); test: SENP7 protease inhibitors, SAR follow-up, biochemical, luminescence, set 2 (AID 588600); assay type: functional
T4 sequence (Q9BQF6 whole entry): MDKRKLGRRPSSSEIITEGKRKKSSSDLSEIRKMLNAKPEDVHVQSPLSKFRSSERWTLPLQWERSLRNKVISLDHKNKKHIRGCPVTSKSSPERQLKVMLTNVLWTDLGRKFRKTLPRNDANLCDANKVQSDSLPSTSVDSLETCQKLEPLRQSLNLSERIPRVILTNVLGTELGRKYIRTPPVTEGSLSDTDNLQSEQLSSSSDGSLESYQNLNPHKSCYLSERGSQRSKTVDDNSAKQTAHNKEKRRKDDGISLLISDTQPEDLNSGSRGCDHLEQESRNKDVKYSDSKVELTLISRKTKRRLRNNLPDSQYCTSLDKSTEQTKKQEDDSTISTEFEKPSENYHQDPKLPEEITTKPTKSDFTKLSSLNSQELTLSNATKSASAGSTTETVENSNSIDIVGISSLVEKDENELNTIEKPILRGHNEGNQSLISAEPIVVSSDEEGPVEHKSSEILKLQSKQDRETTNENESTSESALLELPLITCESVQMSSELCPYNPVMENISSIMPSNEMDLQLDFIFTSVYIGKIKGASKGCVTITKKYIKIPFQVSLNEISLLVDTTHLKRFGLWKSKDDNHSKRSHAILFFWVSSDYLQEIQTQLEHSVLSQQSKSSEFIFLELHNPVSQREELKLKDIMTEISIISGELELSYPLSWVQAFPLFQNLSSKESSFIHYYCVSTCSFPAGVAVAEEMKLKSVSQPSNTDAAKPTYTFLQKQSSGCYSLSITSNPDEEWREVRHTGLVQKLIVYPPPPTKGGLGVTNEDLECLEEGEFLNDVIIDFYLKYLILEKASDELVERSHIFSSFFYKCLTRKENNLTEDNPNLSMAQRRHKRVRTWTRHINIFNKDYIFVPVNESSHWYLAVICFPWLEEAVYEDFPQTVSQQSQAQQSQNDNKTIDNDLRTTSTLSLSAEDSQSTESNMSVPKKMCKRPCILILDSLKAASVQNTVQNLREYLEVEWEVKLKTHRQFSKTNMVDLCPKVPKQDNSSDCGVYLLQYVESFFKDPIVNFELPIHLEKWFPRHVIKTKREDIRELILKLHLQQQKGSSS

[12] = target: T3, Sentrin-specific protease 6; test: SAR Analysis of small molecule inhibitors of Sentrin-specific protease 6 (SENP6) using a Luminescent assay. [Related pubchem assays (depositor defined):AID2582, AID2599]; assay type: functional
[13] = target: T5, Caspase-3 (Homo sapiens, UniProt P42574); test: SAR Analysis of small molecule inhibitors of Sentrin-specific proteases (SENPs) using a Caspase-3 Selectivity assay. [Related pubchem assays (depositor defined):AID2540, AID2599, AID434973, AID489001]; assay type: functional
T5 sequence (P42574 whole entry): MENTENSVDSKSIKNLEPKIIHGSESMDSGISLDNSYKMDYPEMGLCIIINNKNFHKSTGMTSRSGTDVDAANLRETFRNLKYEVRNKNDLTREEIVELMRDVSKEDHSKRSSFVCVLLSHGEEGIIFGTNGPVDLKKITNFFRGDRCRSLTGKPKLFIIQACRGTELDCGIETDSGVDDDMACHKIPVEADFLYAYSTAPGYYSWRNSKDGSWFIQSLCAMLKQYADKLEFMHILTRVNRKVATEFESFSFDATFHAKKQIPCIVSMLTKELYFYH

[14] = target: T2, Sentrin-specific protease 8; test: SENP8 protease inhibitors, SAR follow-up, biochemical, luminescence, set 2 (AID 588601); assay type: functional
[15] = target: T4, Sentrin-specific protease 7; test: SENP7 protease inhibitors, SAR follow-up, biochemical, luminescence (AID 504497); assay type: functional
[16] = system: BJ; test: cytotoxicity toward Ras-transformed BJeLR fibroblasts, dose response, cell-based, alamar blue fluorescence, cherrypicked samples (AID 2631); assay type: functional; details: Homo sapiens;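 also: confirmatory dose-response assay in RAS-dependent BJ fibroblasts engineered with TERT, LT and ST, with cytotoxicity read by fluorescence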
[17] = cytotoxicity toward DRD oncogenic fibroblasts, dose response, cell-based, non-viral oncogenic, luminescence (AID 1934); assay type: functional; details: Homo sapiens
[18] = system: BJ; test: cytotoxicity toward BJ-TERT fibroblasts, dose response, cell-based, RAS-independent, luminescence (AID 1933); assay type: functional; details: Homo sapiens
[19] = system: BJ; test: cells; assay type: functional, cell-based; details: Homo sapiens, read-out: EC50
[20] = system: BJ; test: cytotoxicity toward BJ-TERT-LT-ST fibroblasts, dose response, cell-based, RAS-independent, luminescence (AID 1935); assay type: functional; details: Homo sapiens;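 also: BJ fibroblasts immortalized with TERT plus LT and ST oncogenes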
[21] = target: Beta-galactosidase (Escherichia coli, UniProt Q8VNN2); test: PubChem AID 485352; assay type: functional
[22] = target: T6, Type-1 angiotensin II receptor (Homo sapiens, UniProt P30556); test: AT1 receptor antagonists, dose response, selectivity assay for APJ receptor antagonist project, cell-based, uHTS hits (AID 463214); assay type: functional;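 also: antagonist potency against angiotensin II stimulated AT1 response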
T6 sequence (P30556 whole entry): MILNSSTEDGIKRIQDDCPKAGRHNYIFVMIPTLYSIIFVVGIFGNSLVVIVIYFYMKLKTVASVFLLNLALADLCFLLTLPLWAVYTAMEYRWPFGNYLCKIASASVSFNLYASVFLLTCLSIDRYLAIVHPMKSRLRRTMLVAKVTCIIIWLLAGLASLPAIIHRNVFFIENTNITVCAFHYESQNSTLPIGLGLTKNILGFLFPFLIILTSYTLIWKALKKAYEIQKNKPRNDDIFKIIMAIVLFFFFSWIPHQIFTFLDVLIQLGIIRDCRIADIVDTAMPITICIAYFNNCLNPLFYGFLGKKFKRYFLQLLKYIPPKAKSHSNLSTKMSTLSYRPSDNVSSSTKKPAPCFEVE

[23] = target: T7, Protein skinhead-1 (Caenorhabditis elegans, UniProt P34707); assay type: functional
T7 sequence (P34707 whole entry): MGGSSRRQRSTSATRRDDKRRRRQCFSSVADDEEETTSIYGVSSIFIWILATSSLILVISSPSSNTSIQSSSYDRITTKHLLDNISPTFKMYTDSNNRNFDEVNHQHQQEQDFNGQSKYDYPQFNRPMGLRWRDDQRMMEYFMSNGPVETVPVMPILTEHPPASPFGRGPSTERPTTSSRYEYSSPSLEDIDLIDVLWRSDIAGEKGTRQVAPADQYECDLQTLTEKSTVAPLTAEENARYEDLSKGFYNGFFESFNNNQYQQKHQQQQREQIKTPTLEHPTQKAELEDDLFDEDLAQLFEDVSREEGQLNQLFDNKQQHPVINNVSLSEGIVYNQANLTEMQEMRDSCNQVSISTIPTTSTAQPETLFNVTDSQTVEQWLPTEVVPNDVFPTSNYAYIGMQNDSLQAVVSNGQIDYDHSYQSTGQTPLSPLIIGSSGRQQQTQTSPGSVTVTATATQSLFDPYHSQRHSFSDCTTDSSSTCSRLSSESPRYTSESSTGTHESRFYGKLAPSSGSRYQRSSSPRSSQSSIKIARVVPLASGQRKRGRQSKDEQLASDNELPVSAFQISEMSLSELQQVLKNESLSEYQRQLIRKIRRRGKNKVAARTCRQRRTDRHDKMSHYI

Beta-galactosidase, sequence (Q8VNN2 whole entry): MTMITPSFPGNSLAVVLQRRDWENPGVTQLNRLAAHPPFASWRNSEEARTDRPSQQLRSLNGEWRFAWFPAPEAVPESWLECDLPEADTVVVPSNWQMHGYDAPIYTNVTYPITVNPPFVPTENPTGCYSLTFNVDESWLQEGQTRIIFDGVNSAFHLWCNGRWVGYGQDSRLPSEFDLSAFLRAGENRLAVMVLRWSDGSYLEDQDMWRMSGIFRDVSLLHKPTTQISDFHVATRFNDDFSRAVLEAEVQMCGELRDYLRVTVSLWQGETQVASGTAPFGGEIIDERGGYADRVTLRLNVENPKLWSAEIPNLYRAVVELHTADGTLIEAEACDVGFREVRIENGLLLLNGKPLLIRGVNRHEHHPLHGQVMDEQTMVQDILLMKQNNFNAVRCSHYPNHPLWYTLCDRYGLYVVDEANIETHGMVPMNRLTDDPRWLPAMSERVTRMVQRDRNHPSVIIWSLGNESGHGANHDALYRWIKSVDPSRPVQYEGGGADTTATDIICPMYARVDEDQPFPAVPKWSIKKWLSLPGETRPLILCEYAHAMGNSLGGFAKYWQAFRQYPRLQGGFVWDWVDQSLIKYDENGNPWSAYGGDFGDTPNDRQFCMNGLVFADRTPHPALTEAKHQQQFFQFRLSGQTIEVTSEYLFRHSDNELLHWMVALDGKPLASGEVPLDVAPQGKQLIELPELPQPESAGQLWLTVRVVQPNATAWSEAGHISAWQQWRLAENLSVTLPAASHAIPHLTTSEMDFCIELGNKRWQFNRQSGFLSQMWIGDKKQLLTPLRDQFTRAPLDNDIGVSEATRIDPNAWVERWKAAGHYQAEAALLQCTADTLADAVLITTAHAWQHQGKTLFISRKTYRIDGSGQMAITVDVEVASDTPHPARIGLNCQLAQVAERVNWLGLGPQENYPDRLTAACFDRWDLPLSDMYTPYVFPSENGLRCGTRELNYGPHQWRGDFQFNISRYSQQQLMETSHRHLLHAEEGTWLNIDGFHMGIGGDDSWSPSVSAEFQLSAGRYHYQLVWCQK
Luciferin 4-monooxygenase, sequence (P08659 whole entry): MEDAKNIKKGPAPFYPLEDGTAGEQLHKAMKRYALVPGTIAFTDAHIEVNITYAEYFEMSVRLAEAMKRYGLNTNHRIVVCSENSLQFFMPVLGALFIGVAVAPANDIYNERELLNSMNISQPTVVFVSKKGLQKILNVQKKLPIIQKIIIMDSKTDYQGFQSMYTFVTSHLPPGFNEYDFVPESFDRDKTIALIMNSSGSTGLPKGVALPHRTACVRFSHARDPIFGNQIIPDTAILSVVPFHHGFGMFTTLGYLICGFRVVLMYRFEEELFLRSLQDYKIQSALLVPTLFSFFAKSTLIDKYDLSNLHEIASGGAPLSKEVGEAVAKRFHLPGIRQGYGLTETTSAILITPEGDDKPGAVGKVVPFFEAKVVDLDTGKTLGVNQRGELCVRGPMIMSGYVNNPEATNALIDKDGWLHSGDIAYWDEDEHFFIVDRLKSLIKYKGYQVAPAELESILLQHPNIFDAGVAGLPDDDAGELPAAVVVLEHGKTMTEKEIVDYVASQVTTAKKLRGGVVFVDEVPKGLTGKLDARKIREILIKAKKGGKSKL
Genome polyprotein, sequence (P29990 2492-3391 limits assumed): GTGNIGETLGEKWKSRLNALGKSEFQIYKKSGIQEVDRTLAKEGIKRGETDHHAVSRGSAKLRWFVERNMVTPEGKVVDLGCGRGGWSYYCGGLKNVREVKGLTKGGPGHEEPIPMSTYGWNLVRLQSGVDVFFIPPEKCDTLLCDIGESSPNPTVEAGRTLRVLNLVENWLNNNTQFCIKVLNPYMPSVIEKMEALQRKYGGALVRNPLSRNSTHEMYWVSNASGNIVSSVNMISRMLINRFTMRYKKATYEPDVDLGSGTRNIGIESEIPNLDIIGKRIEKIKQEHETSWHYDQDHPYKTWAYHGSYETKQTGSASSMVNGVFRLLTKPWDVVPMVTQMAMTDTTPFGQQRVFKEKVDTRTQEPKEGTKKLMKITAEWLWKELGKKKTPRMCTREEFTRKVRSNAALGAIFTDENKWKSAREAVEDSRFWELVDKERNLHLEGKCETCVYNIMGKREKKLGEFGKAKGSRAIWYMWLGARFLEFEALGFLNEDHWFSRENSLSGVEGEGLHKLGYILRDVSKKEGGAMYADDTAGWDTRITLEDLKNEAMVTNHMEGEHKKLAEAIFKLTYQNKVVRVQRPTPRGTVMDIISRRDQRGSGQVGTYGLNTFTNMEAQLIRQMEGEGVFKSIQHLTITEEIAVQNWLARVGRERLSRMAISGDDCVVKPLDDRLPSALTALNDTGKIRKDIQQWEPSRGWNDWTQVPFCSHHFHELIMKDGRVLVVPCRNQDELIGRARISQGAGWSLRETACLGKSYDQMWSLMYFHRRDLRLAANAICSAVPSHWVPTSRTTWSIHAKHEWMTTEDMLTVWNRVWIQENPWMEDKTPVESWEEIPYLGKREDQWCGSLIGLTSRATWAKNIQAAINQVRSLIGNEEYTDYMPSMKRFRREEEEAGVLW

Cc1ccc(NC(=O)O/N=C/c2c(C)nn(C(C)(C)C)c2C)cc1Cl
AC50 [1]: 0.237 µM (active)
AC50 [2]: 0.125 µM (active)
AC50 [3]: 14.8 µM (active)
IC50 [4]: > 80 µM (inactive)
AC50 [5]: 0.099 µM (active)

O=C(Nc1sc2c(c1C(=O)O)CCCC2)c1cccc(Cl)c1
AC50 [6]: > 100 µM (inactive)
IC50 [7]: 71.8 µM (active)
CC50 [8]: > 40 µM (active)

Fc1ccc(/C=C/c2noc(-c3ccccc3I)n2)cc1
IC50 [9]: 23 µM (active)
IC50 [10]: 7.33 µM (active)
IC50 [11]: 7.78 µM (active)
IC50 [12]: 20 µM (active)
IC50 [13]: 24 µM (active)
IC50 [14]: 7.41 µM (active)
IC50 [15]: 6.4 µM (active)

Cc1ccc(/C=C2\SC(=S)N(CC3CCCO3)C2=O)o1 (stereo not drawn)
EC50 [16]: > 133 µM (inactive)
EC50 [17]: 16.4 µM (active)
EC50 [18]: 35.8 µM (inconclusive)
EC50 [19]: > 150 µM (not active)
EC50 [20]: > 150 µM (not active)

O=C(CNc1ccc(Br)cc1)c1ccccc1
EC50 [21]: > 40 µM (inactive)
IC50 [22]: 13.5 µM (active)
IC50 [23]: > 100 µM (inactive)
